Like-named read-outs stand apart in the source and are kept apart here.
Tests used:
Z-138 cell line = experiment: Z-138 Proliferation Assay (Cell Titer Glo, 5 days); format: cell-based; details: Homo sapiens, 120 h, Z-138 cells, 5 days, read-out: Proliferation EC50
Outline: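 Viability via CellTiter-Glo luminescence (ATP) after 5-day incubation at 37 °C, 5% CO2. Compounds tested in triplicate, nine 3-fold steps, highest final concentration 20 μM in 0.2% DMSO; 50% inhibitory concentration by 4-parameter fit of normalized curves.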

[1] = system: symmetric di-methyl arginine in Z-138 cells; experiment: Z-138 Methylation Assay (In Cell Western for symmetric di-methyl arginine and DNA content); format: cell-based; details: Homo sapiens, read-out: ICW EC50
Outline: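 In-cell western: symmetric di-methyl arginine signal ratioed to DRAQ5 DNA content after 96 h compound exposure of Z-138 cells seeded at 50,000 cells/mL.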

| EC50 [1] | EC50 ([1]; In Cell Western methylation) | SMILES | EC50 (Z-138 cell line) | EC50 (Z-138 cell line; Cell Titer Glo) |
| --- | --- | --- | --- | --- |
| 0.101 to 1 µM |  | O=C(NCC(O)CN1CCc2ccccc2C1)c1ccc(NC2CCNCC2)cc1 (stereo not drawn) [Compound 138] | 10 to 50 µM |  |
| < 0.1 µM |  | CC(=O)N1CCN(Cc2cccc(C(=O)NCC(O)CN3CCc4ccccc4C3)c2)CC1 (stereo not drawn) [Compound 100] | 1 to 10 µM |  |
| 0.101 to 1 µM |  | O=C(NCC(O)CN1CCc2ccccc2C1)c1cccc(C2CCOC2)c1 (stereo not drawn) [Compound 154] | 1 to 10 µM |  |
| 0.101 to 1 µM |  | O=C(NCC(O)CN1CCc2ccccc2C1)c1cccc(NC2CCNCC2)c1 (stereo not drawn) [Compound 94] | 10 to 50 µM |  |
| 1 to 10 µM |  | COCCCNc1cccc(C(=O)NCC(O)CN2CCc3ccccc3C2)c1 (stereo not drawn) [Compound 69] | > 20 µM |  |
| 1 to 10 µM |  | O=C(NCC(O)CN1CCc2ccccc2C1)c1cccc(NC2CCNC2)c1 (stereo not drawn) [Compound 93] | > 20 µM |  |
| < 0.1 µM |  | O=C(NCC(O)CN1CCc2ccccc2C1)c1ccnc(NC2CCOCC2)c1 (stereo not drawn) [Compound 74] | 0.101 to 1 µM |  |
| < 0.1 µM |  | CS(=O)(=O)N1CCC(Nc2cccc(C(=O)NC[C@H](O)CN3CCc4ccccc4C3)c2)CC1 [Compound 216] | 0.101 to 1 µM |  |
| < 0.1 µM |  | CS(=O)(=O)N1CC(Nc2cc(C(=O)NC[C@H](O)CN3CCc4ccccc4C3)ncn2)C1 [Compound 283] | 0.101 to 1 µM |  |
| < 0.1 µM |  | CS(=O)(=O)N1CCC(Oc2cc(C(=O)NC[C@H](O)CN3CCc4ccccc4C3)ccn2)CC1 [Compound 204] | 0.101 to 1 µM |  |
| < 0.1 µM |  | CS(=O)(=O)N1CCC(Nc2ccc(C(=O)NCC(O)CN3CCc4ccccc4C3)cc2)CC1 (stereo not drawn) [Compound 141] | 1 to 10 µM |  |
| 0.101 to 1 µM |  | CN(CC(O)CN1CCc2ccccc2C1)C(=O)c1cccc(NC2CCOCC2)c1 (stereo not drawn) [Compound 71] | 1 to 10 µM |  |
| 0.101 to 1 µM |  | O=C(NCC(O)CN1CCc2ccccc2C1)c1cccc(NC2CCCOC2)c1 (stereo not drawn) [Compound 60] | 1 to 10 µM |  |
| 0.101 to 1 µM |  | CS(=O)(=O)N1CCC(Oc2cncc(C(=O)NC[C@H](O)CN3CCc4ccccc4C3)c2)CC1 [Compound 290] | 10 to 50 µM |  |
| < 0.1 µM |  | CS(=O)(=O)N1CCC(Nc2cncc(C(=O)NC[C@H](O)CN3CCc4ccccc4C3)c2)CC1 [Compound 301] | 0.101 to 1 µM |  |
| < 0.1 µM |  | CC(C)N1CCC(Nc2ccc(C(=O)NCC(O)CN3CCc4ccccc4C3)cc2)CC1 (stereo not drawn) [Compound 140] | 1 to 10 µM |  |
| < 0.1 µM |  | CC(=O)N1CCC(Oc2ccc(C(=O)NCC(O)CN3CCc4ccccc4C3)cc2)CC1 (stereo not drawn) [Compound 107] | 0.101 to 1 µM |  |
| < 0.1 µM |  | CN1CCC(Nc2ccc(C(=O)NCC(O)CN3CCc4ccccc4C3)cc2)CC1 (stereo not drawn) [Compound 139] | 1 to 10 µM |  |
| < 0.1 µM |  | O=C(NC[C@H](O)CN1CCc2ccccc2C1)c1ccnc(NC2CCCC2)c1 [Compound 334] | < 0.1 µM |  |

Second part, the molecule before the results:

| SMILES | EC50 [1] | EC50 ([1]; In Cell Western methylation) | EC50 (Z-138 cell line) | EC50 (Z-138 cell line; Cell Titer Glo) |
| --- | --- | --- | --- | --- |
| O=C(NC[C@H](O)CN1CCc2ccccc2C1)c1cccc2c1OCCO2 [Compound 249] | 0.101 to 1 µM |  | 10 to 50 µM |  |
| Cn1nccc1-c1cccc(C(=O)NCC(O)CN2CCc3ccccc3C2)c1 (stereo not drawn) [Compound 2, N-(3-(3,4-dihydroisoquinolin-2(1H)-yl)-2-hydroxypropyl)-3-(1-methyl-1H-pyrazol-5-yl)benzamide] | < 0.1 µM |  | 1 to 10 µM |  |
| O=C(NC[C@H](O)CN1CCc2ccccc2C1)c1nc2cc(Br)ccc2[nH]1 [Compound 319] | < 0.1 µM |  | 1 to 10 µM |  |
| CN(CCOc1cccc(C(=O)NCC(O)CN2CCc3ccccc3C2)c1)CC(N)=O (stereo not drawn) [Compound 277] | < 0.1 µM |  | 1 to 10 µM |  |
| CN1CCC(CNc2cc(C(=O)NC[C@H](O)CN3CCc4ccccc4C3)ccn2)CC1 [Compound 292] | < 0.1 µM |  | 0.101 to 1 µM |  |
| O=C(O)CN1CCN(Cc2cccc(C(=O)NCC(O)CN3CCc4ccccc4C3)c2)CC1 (stereo not drawn) [Compound 157] | 1 to 10 µM |  | > 20 µM |  |
| CC(=O)N1CC(Nc2cc(C(=O)NC[C@H](O)CN3CCc4ccccc4C3)ccn2)C1 [Compound 279] | < 0.1 µM |  | < 0.1 µM |  |
| O=C(NC[C@H](O)CN1CCc2ccccc2C1)c1cc(OC2CCOCC2)ncn1 [Compound 256] | < 0.1 µM |  | 1 to 10 µM |  |
| O=C(NCC(O)CN1CCc2ccccc2C1)c1cccc(-c2ccncc2)c1 (stereo not drawn) [Compound 9, N-(3-(3,4-dihydroisoquinolin-2(1H)-yl)-2-hydroxypropyl)-3-(pyridin-4-yl)benzamide] | < 0.1 µM |  | 1 to 10 µM |  |
| CNC(=O)CNCc1cccc(C(=O)NCC(O)CN2CCc3ccccc3C2)c1 (stereo not drawn) [Compound 117] | 0.101 to 1 µM |  | > 20 µM |  |
| O=C(NCC(O)CN1CCc2ccccc2C1)c1ccc(N2CCS(=O)(=O)CC2)cc1 (stereo not drawn) [Compound 179] | < 0.1 µM |  | 1 to 10 µM |  |
| O=C(NC[C@H](O)CN1CCc2ccccc2C1)c1ccc(OC2CCN(CCO)CC2)cc1 [Compound 321] | < 0.1 µM |  | 0.101 to 1 µM |  |
| CN1CCC(Nc2cc(C(=O)NC[C@H](O)CN3CCc4ccccc4C3)ncn2)C1 (stereo partly drawn) [Compound 181] | 0.101 to 1 µM |  | 1 to 10 µM |  |
| Cc1cnc(NC2CCOC2)cc1C(=O)NC[C@H](O)CN1CCc2ccccc2C1 (stereo partly drawn) [Compound 308] | 0.101 to 1 µM |  | 10 to 50 µM |  |
| CCOC(=O)CN1CCN(Cc2cccc(C(=O)NCC(O)CN3CCc4ccccc4C3)c2)CC1 (stereo not drawn) [Compound 165] | 0.101 to 1 µM |  | 1 to 10 µM |  |
| CN(C)C(=O)CN1CCN(Cc2cccc(C(=O)NCC(O)CN3CCc4ccccc4C3)c2)CC1 (stereo not drawn) [Compound 174] | < 0.1 µM |  | 1 to 10 µM |  |
| O=C(NC[C@H](O)CN1CCc2ccccc2C1)c1ccc2c(c1)CCCC2 [Compound 247] | 0.101 to 1 µM |  | 1 to 10 µM |  |
| O=C(NC[C@H](O)CN1CCc2ccccc2C1)c1ccnc(Nc2ccncc2)c1 [Compound 412] |  | < 0.1 µM |  | 0.101 to 1 µM |

| SMILES | EC50 [1] | EC50 ([1]; In Cell Western methylation) | EC50 (Z-138 cell line) | EC50 (Z-138 cell line; Cell Titer Glo) |
| --- | --- | --- | --- | --- |
| NC(=O)CCCN1CCN(Cc2cccc(C(=O)NCC(O)CN3CCc4ccccc4C3)c2)CC1 (stereo not drawn) [Compound 159] | 0.101 to 1 µM |  | 1 to 10 µM |  |
| O=C(NCC(O)CN1CCc2ccccc2C1)c1cccc(-n2cncn2)c1 (stereo not drawn) [Compound 130] | 0.101 to 1 µM |  | 10 to 50 µM |  |
| Cc1c(NC2CCOCC2)cccc1C(=O)NCC(O)CN1CCc2ccccc2C1 (stereo not drawn) [Compound 40, N-(3-(3,4-dihydroisoquinolin-2(1H)-yl)-2-hydroxypropyl)-2-methyl-3-((tetrahydro-2H-pyran-4-yl)amino)benzamide] | < 0.1 µM |  | 1 to 10 µM |  |
| O=C(NC[C@H](O)CN1CCc2ccccc2C1)c1ccnc(NCc2cccnc2)c1 [Compound 190] | < 0.1 µM |  | 0.101 to 1 µM |  |
| O=C(NCC(O)CN1CCc2ccccc2C1)c1cccc(-c2cccnc2)c1 (stereo not drawn) [Compound 8, N-(3-(3,4-dihydroisoquinolin-2(1H)-yl)-2-hydroxypropyl)-3-(pyridin-3-yl)benzamide] | < 0.1 µM |  | 1 to 10 µM |  |
| CC(C)(C)c1cc(Nc2cc(C(=O)NC[C@H](O)CN3CCc4ccccc4C3)ccn2)n[nH]1 [Compound 326] | < 0.1 µM |  | 0.101 to 1 µM |  |
| O=C(NCC(O)CN1CCc2ccccc2C1)c1ccn[nH]1 (stereo not drawn) [Compound 148] | 1 to 10 µM |  | > 20 µM |  |
| NCCN1CCN(Cc2cccc(C(=O)NCC(O)CN3CCc4ccccc4C3)c2)CC1 (stereo not drawn) [Compound 147] | 0.101 to 1 µM |  | 10 to 50 µM |  |
| COc1cc(C(=O)NC[C@H](O)CN2CCc3ccccc3C2)cc(NC2CCC2)n1 [Compound 332] | < 0.1 µM |  | < 0.1 µM |  |
| CC(=O)NCCN1CCN(Cc2cccc(C(=O)NCC(O)CN3CCc4ccccc4C3)c2)CC1 (stereo not drawn) [Compound 156] | 0.101 to 1 µM |  | 1 to 10 µM |  |
| CN(C)C(=O)CNCc1cccc(C(=O)NCC(O)CN2CCc3ccccc3C2)c1 (stereo not drawn) [Compound 118] | 0.101 to 1 µM |  | > 20 µM |  |
| O=C(NCC(O)CN1CCc2ccccc2C1)c1ccc(CN2CCNCC2)cc1 (stereo not drawn) [Compound 143] | < 0.1 µM |  | 1 to 10 µM |  |
| O=C(NCC(O)CN1CCc2ccccc2C1)c1ccc(OC2CCN(CC(F)(F)F)CC2)cc1 (stereo not drawn) [Compound 109] | < 0.1 µM |  | 0.101 to 1 µM |  |
| O=C(NCC(O)CN1CCc2ccccc2C1)c1ccc(-c2ccccn2)cc1 (stereo not drawn) [Compound 13, N-(3-(3,4-dihydroisoquinolin-2(1H)-yl)-2-hydroxypropyl)-4-(pyridin-2-yl)benzamide] | < 0.1 µM |  | 0.101 to 1 µM |  |
| O=C(NC[C@@H](O)CN1CCc2ccccc2C1)c1cc(NC2CCOCC2)ncn1 [Compound 185] | 0.101 to 1 µM |  | 1 to 10 µM |  |
| NCCNc1cc(C(=O)NC[C@H](O)CN2CCc3ccccc3C2)ccn1 [Compound 320] | 0.101 to 1 µM |  | 1 to 10 µM |  |
| O=C(NCC(O)CN1CCc2ccccc2C1)c1cccc(NC2CCOCC2)c1F (stereo not drawn) [Compound 79] | < 0.1 µM |  | 0.101 to 1 µM |  |

— US10307413B2, “Tetrahydro- and dihydro-isoquinoline PRMT5 inhibitors and uses thereof” (Epizyme, Inc., priority 2013, dated 2019)
